Reference: patent US20100298141A1, “SUBSTITUTED PYRIDINE N-OXIDE HERBICIDES” (E. I. DU PONT DE NEMOURS AND COMPANY, priority 2007, published 2010)

Experiments:
barnyardgrass [1] = test: Test A pre-/postemergence greenhouse test; assay type: in vivo, Echinochloa crus-galli; settings: for Plant response rating, Barnyardgrass: 0 to 100 scale where 0 is no effect and 100 is complete control; for Barnyardgrass plant response rating: 0 to 100 scale
Method in brief: (§1)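 Greenhouse herbicide screen, pre- and postemergence in parallel. Soil: loam plus sand. Formulation: non-phytotoxic solvent mix with surfactant. Postemergence stage: one to two leaves, 2–10 cm height. Evaluation: visual injury, compared with untreated controls, about 10 days after treatment.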

crabgrass [2] = test: Test A pre-/postemergence greenhouse test; assay type: in vivo, Digitaria sanguinalis; settings: for Plant response rating, Crabgrass, Large: 0 to 100 scale where 0 is no effect and 100 is complete control; for Crabgrass, Large plant response rating: 0 to 100 scale
Method in brief: as §1

velvetleaf = test: Test A pre-/postemergence greenhouse test; assay type: in vivo, Abutilon theophrasti; settings: for Plant response rating, Velvetleaf: 0 to 100 scale where 0 is no effect and 100 is complete control; for Velvetleaf plant response rating: 0 to 100 scale
Method in brief: as §1

corn [3] = test: Test A pre-/postemergence greenhouse test; assay type: in vivo, Zea mays; settings: for Plant response rating, Corn: 0 to 100 scale where 0 is no effect and 100 is complete control; for Corn plant response rating: 0 to 100 scale
Method in brief: as §1

green foxtail = test: Test C pre-/postemergence test; assay type: in vivo, Setaria viridis; settings: for Plant response rating, Foxtail, Green: 31 g ai/ha, scale 0 to 100 (0 no effect, 100 complete control)
Method in brief: (§2)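 Seeds were planted and treated preemergence with test chemical in a non-phytotoxic solvent mixture containing surfactant. Postemergence applications of the same formulation went onto plants 2 to 18 cm tall (1- to 4-leaf stage). A dash marks no test result.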

Italian ryegrass = test: Test C pre-/postemergence test; assay type: in vivo, Lolium multiflorum; settings: for Plant response rating, Ryegrass, Italian: 31 g ai/ha, scale 0 to 100 (0 no effect, 100 complete control)
Method in brief: as §2

bermudagrass = test: Test C pre-/postemergence test; assay type: in vivo, Cynodon dactylon; settings: for Plant response rating, Bermudagrass: 31 g ai/ha
Method in brief: as §2

corn [4] = test: Test C pre-/postemergence test; assay type: in vivo, Zea mays; settings: for Plant response rating, Corn: 31 g ai/ha, scale 0 to 100 (0 no effect, 100 complete control)
Method in brief: as §2

crabgrass [5] = test: Test C pre-/postemergence test; assay type: in vivo, Digitaria sanguinalis; settings: for Plant response rating, Crabgrass, Large: 31 g ai/ha, scale 0 to 100 (0 no effect, 100 complete control)
Method in brief: as §2

Goosegrass = test: Test C pre-/postemergence test; assay type: in vivo, Eleusin indica; settings: for Plant response rating, Goosegrass: 31 g ai/ha, scale 0 to 100 (0 no effect, 100 complete control)
Method in brief: as §2

johnsongrass = test: Test C pre-/postemergence test; assay type: in vivo, Sorghum halepense; settings: for Plant response rating, Johnsongrass: 31 g ai/ha, scale 0 to 100 (0 no effect, 100 complete control)
Method in brief: as §2

yellow nutsedge = test: Test C pre-/postemergence test; assay type: in vivo, Cyperus esculentus; settings: for Plant response rating, Nutsedge, Yellow: 31 g ai/ha, scale 0 to 100 (0 no effect, 100 complete control)
Method in brief: as §2

pigweed = test: Test C pre-/postemergence test; assay type: in vivo, Amaranthus retroflexus; settings: for Plant response rating, Pigweed: 31 g ai/ha, scale 0 to 100 (0 no effect, 100 complete control)
Method in brief: as §2

soybean = test: Test C pre-/postemergence test; assay type: in vivo, Glycine max; settings: for Plant response rating, Soybean: 31 g ai/ha, scale 0 to 100 (0 no effect, 100 complete control)
Method in brief: as §2

umbrella sedge = test: Test C flooded paddy test; assay type: in vivo, Cyperus difformis; settings: Flood
Method in brief: (§3)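 Visual injury ratings against untreated controls, taken 13 to 15 days after compound was added to paddy water standing 3 cm above the soil.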

duck salad = test: Test C flooded paddy test; assay type: in vivo, Heteranthera limosa; settings: Flood
Method in brief: as §3

barnyardgrass [6] = test: Test C flooded paddy test; assay type: in vivo, Echinochloa crus-galli; settings: Flood
Method in brief: as §3

[7] = Postemergence, 500 g ai/ha, 0 is no effect, 100 is complete control
[8] = Preemergence, 125 g ai/ha, 0 no effect, 100 complete control
[9] = Preemergence, 500 g ai/ha, 0 no effect, 100 complete control
[10] = 62 g ai/ha, Preemergence, scale 0 to 100
[11] = 125 g ai/ha, preemergence, scale 0 (no effect) to 100 (complete control)
[12] = preemergence, 250 g ai/ha, scale 0 (no effect) to 100 (complete control)
[13] = 62 g ai/ha, Preemergence, scale 0 to 100 (0 no effect, 100 complete control)
[14] = Preemergence, scale 0 to 100 (0 no effect, 100 complete control)
[15] = 62 g ai/ha, scale 0 to 100 (0 no effect, 100 complete control)
[16] = 250 g ai/ha, scale 0 to 100, 0 no effect, 100 complete control, 13 to 15 days

CCc1cc[n+]([O-])c([S+]([O-])Cc2c(C(F)(F)F)nn(C)c2OC(F)F)c1 (centres unmarked) [Compound 101]
Plant response rating, Barnyardgrass (barnyardgrass [1]; Postemergence, 125 g ai/ha): 80
Barnyardgrass plant response rating (barnyardgrass [1]; [7]): 90
Barnyardgrass plant response rating (barnyardgrass [1]; [8]): 90
Barnyardgrass plant response rating (barnyardgrass [1]; [9]): 100
Plant response rating, Crabgrass, Large (crabgrass [2]; Postemergence, 125 g ai/ha): 60
Crabgrass, Large plant response rating (crabgrass [2]; [7]): 90
Crabgrass, Large plant response rating (crabgrass [2]; [8]): 90
Crabgrass, Large plant response rating (crabgrass [2]; [9]): 100
Plant response rating, Velvetleaf (velvetleaf; Postemergence, 125 g ai/ha): 70
Velvetleaf plant response rating (velvetleaf; [7]): 90
Velvetleaf plant response rating (velvetleaf; [8]): 80
Velvetleaf plant response rating (velvetleaf; [9]): 100
Plant response rating, Corn (corn [3]; Postemergence, 125 g ai/ha): 60
Corn plant response rating (corn [3]; [7]): 70
Corn plant response rating (corn [3]; [8]): 50
Corn plant response rating (corn [3]; [9]): 90
Foxtail, Green plant response rating (green foxtail; [10]): 95
Foxtail, Green plant response rating (green foxtail; [11]): 98
Plant response rating, Foxtail, Green (green foxtail; Preemergence): 85
Foxtail, Green plant response rating (green foxtail; [12]): 100
Ryegrass, Italian plant response rating (Italian ryegrass; [11]): 0
Plant response rating, Ryegrass, Italian (Italian ryegrass; Preemergence): 0
Ryegrass, Italian plant response rating (Italian ryegrass; [12]): 60
Bermudagrass plant response rating (bermudagrass; [13]): 85
Bermudagrass plant response rating (bermudagrass; [11]): 100
Plant response rating, Bermudagrass (bermudagrass; [14]): 55
Bermudagrass plant response rating (bermudagrass; [12]): 100
Corn plant response rating (corn [4]; [10]): 75
Corn plant response rating (corn [4]; [11]): 90
Plant response rating, Corn (corn [4]; Preemergence): 40
Corn plant response rating (corn [4]; [12]): 98
Crabgrass, Large plant response rating (crabgrass [5]; [10]): 85
Crabgrass, Large plant response rating (crabgrass [5]; [11]): 95
Plant response rating, Crabgrass, Large (crabgrass [5]; Preemergence): 50
Crabgrass, Large plant response rating (crabgrass [5]; [12]): 98
Goosegrass plant response rating (Goosegrass; [10]): 85
Goosegrass plant response rating (Goosegrass; [11]): 100
Plant response rating, Goosegrass (Goosegrass; Preemergence): 80
Goosegrass plant response rating (Goosegrass; [12]): 100
Johnsongrass plant response rating (johnsongrass; [10]): 85
Johnsongrass plant response rating (johnsongrass; [11]): 95
Plant response rating, Johnsongrass (johnsongrass; Preemergence): 70
Johnsongrass plant response rating (johnsongrass; [12]): 100
Nutsedge, Yellow plant response rating (yellow nutsedge; [10]): 20
Nutsedge, Yellow plant response rating (yellow nutsedge; [11]): 60
Plant response rating, Nutsedge, Yellow (yellow nutsedge; Preemergence): 0
Nutsedge, Yellow plant response rating (yellow nutsedge; [12]): 100
Pigweed plant response rating (pigweed; [10]): 50
Pigweed plant response rating (pigweed; [11]): 95
Plant response rating, Pigweed (pigweed; Preemergence): 50
Pigweed plant response rating (pigweed; [12]): 98
Soybean plant response rating (soybean; [10]): 60
Soybean plant response rating (soybean; [11]): 75
Plant response rating, Soybean (soybean; Preemergence): 0
Soybean plant response rating (soybean; [12]): 85
Plant response rating, Sedge, Umbrella (umbrella sedge; [15]): 0
Plant response rating, Sedge, Umbrella (umbrella sedge; [16]): 90
Plant response rating, Ducksalad (duck salad; [15]): 0
Plant response rating, Ducksalad (duck salad; [16]): 80
Plant response rating, Barnyardgrass (barnyardgrass [6]; [15]): 0
Plant response rating, Barnyardgrass (barnyardgrass [6]; [16]): 70

Cc1cc[n+]([O-])c(S(=O)(=O)Cc2c(C(F)(F)F)nn(C)c2OC(C)C(F)(F)F)c1 (centres unmarked) [Compound 96]
Plant response rating, Barnyardgrass (barnyardgrass [1]; Postemergence, 125 g ai/ha): 60
Barnyardgrass plant response rating (barnyardgrass [1]; [7]): 90
Barnyardgrass plant response rating (barnyardgrass [1]; [8]): 90
Plant response rating, Barnyardgrass (barnyardgrass [1]; Preemergence, 500 g ai/ha): 100
Plant response rating, Crabgrass, Large (crabgrass [2]; Postemergence, 125 g ai/ha): 40
Crabgrass, Large plant response rating (crabgrass [2]; [7]): 90
Crabgrass, Large plant response rating (crabgrass [2]; [8]): 80
Plant response rating, Crabgrass, Large (crabgrass [2]; Preemergence, 500 g ai/ha): 100
Plant response rating, Velvetleaf (velvetleaf; Postemergence, 125 g ai/ha): 50
Velvetleaf plant response rating (velvetleaf; [7]): 60
Velvetleaf plant response rating (velvetleaf; [8]): 40
Velvetleaf plant response rating (velvetleaf; [9]): 100
Plant response rating, Corn (corn [3]; Postemergence, 125 g ai/ha): 20
Corn plant response rating (corn [3]; [8]): 0
Plant response rating, Corn (corn [3]; Preemergence, 500 g ai/ha): 50
Foxtail, Green plant response rating (green foxtail; [10]): 95
Foxtail, Green plant response rating (green foxtail; [11]): 98
Plant response rating, Foxtail, Green (green foxtail; Preemergence): 95
Foxtail, Green plant response rating (green foxtail; [12]): 100
Ryegrass, Italian plant response rating (Italian ryegrass; [10]): 98
Ryegrass, Italian plant response rating (Italian ryegrass; [11]): 100
Plant response rating, Ryegrass, Italian (Italian ryegrass; Preemergence): 60
Ryegrass, Italian plant response rating (Italian ryegrass; [12]): 100
Bermudagrass plant response rating (bermudagrass; [13]): 100
Bermudagrass plant response rating (bermudagrass; [11]): 100
Plant response rating, Bermudagrass (bermudagrass; [14]): 85
Bermudagrass plant response rating (bermudagrass; [12]): 100
Corn plant response rating (corn [4]; [10]): 0
Corn plant response rating (corn [4]; [11]): 35
Plant response rating, Corn (corn [4]; Preemergence): 0
Corn plant response rating (corn [4]; [12]): 60
Crabgrass, Large plant response rating (crabgrass [5]; [10]): 85
Crabgrass, Large plant response rating (crabgrass [5]; [11]): 95
Plant response rating, Crabgrass, Large (crabgrass [5]; Preemergence): 80
Crabgrass, Large plant response rating (crabgrass [5]; [12]): 98
Goosegrass plant response rating (Goosegrass; [10]): 100
Goosegrass plant response rating (Goosegrass; [11]): 100
Plant response rating, Goosegrass (Goosegrass; Preemergence): 95
Goosegrass plant response rating (Goosegrass; [12]): 100
Johnsongrass plant response rating (johnsongrass; [10]): 95
Johnsongrass plant response rating (johnsongrass; [11]): 100
Plant response rating, Johnsongrass (johnsongrass; Preemergence): 70
Johnsongrass plant response rating (johnsongrass; [12]): 100
Nutsedge, Yellow plant response rating (yellow nutsedge; [10]): 80
Nutsedge, Yellow plant response rating (yellow nutsedge; [11]): 95
Plant response rating, Nutsedge, Yellow (yellow nutsedge; Preemergence): 40
Nutsedge, Yellow plant response rating (yellow nutsedge; [12]): 95
Pigweed plant response rating (pigweed; [10]): 70
Pigweed plant response rating (pigweed; [11]): 70
Plant response rating, Pigweed (pigweed; Preemergence): 10
Pigweed plant response rating (pigweed; [12]): 100
Soybean plant response rating (soybean; [10]): 20
Soybean plant response rating (soybean; [11]): 40
Plant response rating, Soybean (soybean; Preemergence): 20
Soybean plant response rating (soybean; [12]): 70
Plant response rating, Sedge, Umbrella (umbrella sedge; [15]): 0
Plant response rating, Sedge, Umbrella (umbrella sedge; [16]): 75
Plant response rating, Ducksalad (duck salad; [15]): 0
Plant response rating, Ducksalad (duck salad; [16]): 55
Plant response rating, Barnyardgrass (barnyardgrass [6]; [15]): 0
Plant response rating, Barnyardgrass (barnyardgrass [6]; [16]): 0
